The source of these data is PMC5871770, “Tlr1612 is the major repressor of cell aggregation in the light-color-dependent c-di-GMP signaling network of Thermosynechococcus vulcanus” (Scientific Reports, 2018).

The target of experiment [1] is T1, Tll0007-PilZ (FRET biosensor mCyPet-Tll0007 PilZ-mYPet) (Thermostichus vulcanus, UniProt E5RST0).
T1 construct: gene Tvtll0007; N-terminal His tag, pET28V, E. coli expressed
Description: FRET biosensor titration (F527/F475). In kind it is binding. The settings on record: 31 °C, pH 7.5, 100 mM NaCl, 10% glycerol, 50 nM protein; PilZ domain.

For experiment [2], the target named is T2, full-length YcgR of Escherichia coli (Escherichia coli, UniProt P76010).
T2 construct: full length between mCyPet and mYPet (FRET reporters); N-terminal His tag, pET28V, E. coli expressed
T2 sequence (P76010 1-244): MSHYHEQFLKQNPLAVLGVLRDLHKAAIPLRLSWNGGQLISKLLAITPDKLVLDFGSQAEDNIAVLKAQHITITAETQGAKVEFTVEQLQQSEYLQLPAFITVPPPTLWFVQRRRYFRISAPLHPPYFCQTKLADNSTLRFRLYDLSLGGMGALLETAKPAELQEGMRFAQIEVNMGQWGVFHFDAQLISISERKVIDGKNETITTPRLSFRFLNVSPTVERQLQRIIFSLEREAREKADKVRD
Briefly: FRET biosensor titration (F527/F475). The settings on record: read-out: affinity. It is filed as binding.

The target of experiment [3] is T3, Tll0007-PilZ (FRET biosensor mCyPet-Tll0007 PilZ-mYPet) (Thermostichus vulcanus, UniProt E5RST0, R605A).
T3 construct: gene Tvtll0007; N-terminal His tag, pET28V, E. coli expressed
Briefly: FRET biosensor titration (F527/F475). In kind it is binding. The settings on record: 31 °C, pH 7.5, 100 mM NaCl, 10% glycerol, 50 nM protein; c-di-GMP 10 nM to 1 mM; PilZ RXXXR motif mutant.

Experiment [4] concerns the target T4, SesA.
T4 construct: PCC 6803 from pTCH2031V; pre-irradiated with blue light
Description: EnzChek pyrophosphate assay, initial rate of diguanylate cyclase. It is filed as biochemical. The settings on record: 31 °C, pH 7.5, 20 mM MgCl2, 100 µM GTP, 0.2 µM protein, blue-light pre-irradiated; allosteric product inhibition at I-site (RXXD).

T1 sequence (E5RST0 entry or part of it): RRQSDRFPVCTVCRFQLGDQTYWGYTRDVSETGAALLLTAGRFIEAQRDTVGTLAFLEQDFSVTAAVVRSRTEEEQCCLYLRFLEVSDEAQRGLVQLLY
T3 sequence (E5RST0 entry or part of it R605A): as the sequence (E5RST0 entry or part of it) above, with R6A counted along it

One may read the IC50 as the concentration needed to halve the response being measured. As to `Nc1nc2c(ncn2[C@@H]2O[C@@H]3CO[P@](=O)(O)O[C@H]4[C@@H](O)[C@H](n5cnc6c(=O)[nH]c(N)nc65)O[C@@H]4CO[P@](=O)(O)O[C@H]3[C@H]2O)c(=O)[nH]1` [c-di-GMP, bis-(3′-5′)-cyclic diguanylic acid], the Kd was found to be 63.9 ± 5.1 µM in experiment [1] and 0.42 ± 0.08 µM in experiment [2]. In experiment [3], the “no FRET increase (no binding detected)” value is listed as “R605A lacked the corresponding increase in FRET efficiency upon c-di-GMP addition”. The compound also came in with an IC50 in experiment [4] of 1.07 ± 0.13 µM.
